According to patent US11124845B2, “PSMA-based molecular-genetic reporter system” (THE JOHNS HOPKINS UNIVERSITY, priority 2014, dated 2021):

Assays:
HSV-sr39tk = test: Dynamic PET in matrigel suspension model, HSV-sr39tk reporter; type: in vivo, herpes simplex virus; settings: nude mice
Procedure: (§1) Studies were performed according to protocols approved by the Animal Care and Use Committee at Johns Hopkins University. A matrigel suspension model was developed to enable imaging of similar numbers of cells in vivo. Four- to six-week-old athymic male nude mice (Harlan Laboratories Inc., Frederick, Md.) were used for all experiments. 4×10^6 infected cells were injected subcutaneously in the presence of Matrigel (BD Biosciences, Bedford, Mass.) at a 2:1 (cell:matrigel) ratio.
(§2) PET was performed for in vivo reporter comparison. […] [^124I]NaI was kindly provided by Dr. Jason Lewis (Memorial Sloan-Kettering Cancer Center, NY). Athymic nude mice contralaterally implanted with reporter or control expressing matrigel suspensions in the upper flanks were used for imaging. […] Mice were then placed in the prone position on the gantry of a GE eXplore VISTA small animal PET scanner (GE Healthcare Life Sciences, Pittsburgh, Pa.) and injected intravenously with ˜7.4 MBq (200 μCi) in 200 μL of PBS of each respective radiotracer. Images were acquired as a dynamic scan of 18 five-minute frames at 250 to 700 keV for ^18F and 400-700 keV for ^124I. Images were reconstructed using the FORE/2D-OSEM method (1 iteration, 16 subsets) and included correction for radioactive decay, scanner dead time, and scattered radiation. After PET imaging, the mobile mouse holder was placed on the gantry of an X-SPECT (Gamma Medica-Ideas, Salem, N.H.) small animal imaging device to acquire the corresponding CT. PET and CT data were co-registered using AMIDE software (sourceforge.net).
(§3) To compare reporter-probe systems in vivo, a matrigel suspension model was developed (FIG. 2). […] The contralateral cells masses were generally within 30% as measured by GFP imaging in vivo (FIG. 3).
(§4) The next day (48 hours after implantation), animals were subjected to a dynamic PET study whereby ˜7.4 MBq (200 μCi) of each respective radiotracer was administered intravenously and cellular uptake was quantified for a duration of 90 minutes. […]

hNIS = target: T1, hNIS (Homo sapiens, UniProt Q92911); test: Dynamic PET in matrigel suspension model, hNIS reporter; type: in vivo; settings: nude mice
T1 construct: expressed in transfected cells; host or cells: PC3-CAR cells infected in vitro with Ad-Track-hNIS (pAd-Track-CMV-NIS), implanted in matrigel into nude mice
T1 sequence (Q92911 1-643): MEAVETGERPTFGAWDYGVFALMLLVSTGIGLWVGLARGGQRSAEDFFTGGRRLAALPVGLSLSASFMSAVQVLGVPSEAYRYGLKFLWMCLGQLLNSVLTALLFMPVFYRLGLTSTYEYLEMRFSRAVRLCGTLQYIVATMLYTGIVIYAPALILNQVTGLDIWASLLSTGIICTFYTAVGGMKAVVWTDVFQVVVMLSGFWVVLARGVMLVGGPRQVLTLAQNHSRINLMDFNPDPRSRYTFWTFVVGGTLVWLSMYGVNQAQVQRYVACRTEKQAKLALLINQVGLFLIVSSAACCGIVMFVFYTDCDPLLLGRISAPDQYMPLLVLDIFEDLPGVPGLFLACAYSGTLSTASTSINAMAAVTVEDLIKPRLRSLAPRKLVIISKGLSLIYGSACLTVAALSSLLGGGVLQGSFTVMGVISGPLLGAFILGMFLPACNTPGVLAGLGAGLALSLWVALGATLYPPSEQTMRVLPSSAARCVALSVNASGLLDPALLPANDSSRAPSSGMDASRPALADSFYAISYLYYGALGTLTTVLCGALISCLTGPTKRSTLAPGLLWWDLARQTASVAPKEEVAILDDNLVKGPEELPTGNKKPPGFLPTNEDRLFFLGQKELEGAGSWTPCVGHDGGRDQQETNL
Procedure: as §1, §2, §3, §4

[1] = test system: MDA-MB-231 cell lines transiently transfected with full-length and truncations of PSMA; test: In vitro radio uptake assay, cells transfected with non-viral PSMA vectors; type: cell-based; settings: 24 hours after transfection, 1 μCi
Procedure: The basic expression vectors (FIG. 8A) were tested for the ability to uptake a radio-labeled PSMA-targeted molecule (^125I-YC27). […] Twenty-four hours after the transfection, cells were treated with 1 μCi of ^125I-YC27, washed twice and the uptake was measured.

[2] = PC3-CAR cells in matrigel, PET, SUV ratio

SMILES: Nc1nc2c(ncn2CCC(CO)C[18F])c(=O)[nH]1 (stereo not shown) [FHBG, 9-(4-[^18F]Fluoro-3-[hydroxymethyl]butyl)guanine]
- peak target-to-background ratio relative to control cells (HSV-sr39tk; [2]): 2.81±0.27
- peak target-to-background ratio relative to muscle (HSV-sr39tk; [2]): 4.99±0.38
- time after which signal-to-noise ratio greater than two (relative to muscle) could be detected (HSV-sr39tk; dynamic PET): 45 min

SMILES: [124I-].[Na+] [[^124I]NaI]
- peak target-to-background ratio relative to control cells (hNIS; [2]): 3.13±0.20
- peak target-to-background ratio relative to muscle (hNIS; [2]): 4.96±0.65
- time after which signal-to-noise ratio greater than two (relative to muscle) could be detected (hNIS; dynamic PET): 20 min

SMILES: O=C(O)CCC(NC(=O)NC(CCCCNC(=O)c1ccc([125I])cc1)C(=O)O)C(=O)O (stereo not shown) [^125I-YC27, 2-[3-[1-carboxy-5-(4-[^125I]iodo-benzoylamino)-pentyl]-ureido]-pentanedioic acid]
- specific uptake of the substrate [1]: Only full-length and N-terminally truncated PSMA were able to specifically uptake the substrate
